The numbers were not newly measured in patent US5691323A, “Muscarine antagonists” (Merck & Co., Inc., priority 1995, dated 1997), which cites them from elsewhere.

Data set [1] relates to smooth muscle (ordinarily called M3 type). Particulars: background.
The conditions of data set [2]: background statement.
For another data set, the system named is axial elongation. Particulars: background.
The next data set has as its system pupil. Particulars: background.

Turning to `C[N+]1(C)CCC(OC(=O)C(c2ccccc2)c2ccccc2)CC1` [Example 4-DAMP, 4-diphenylacetoxy-N-methylpiperadine methiodide], the “Selectivity for smooth muscle (M3 type) receptors” value in data set [1] was “relatively selective antagonist for smooth muscle”. Take `CN1CCN(CC(=O)N2c3ccccc3C(=O)Nc3cccnc32)CC1` [Pirenzepine]: in data set [2], the Sensitization assay result was “positive”. Moreover, the “Effect on axial elongation / enlargement of the eye” value in the data set on axial elongation was “inhibits axial elongation”. Further, the “Pupil dilation (mydriasis)” value in the data set on pupil is “far less effective at pupil dilation than atropine”. `CN1CCc2cccc3c2[C@H]1Cc1ccc(O)c(O)c1-3` [apomorphine]: in the data set on axial elongation, the “Effect on axial elongation / enlargement of the eye” value was “inhibit or actually prevent the axial enlargement of the eye”.

`CN1[C@@H]2CC[C@H]1C[C@@H](OC(=O)C(CO)c1ccccc1)C2` (stereo partly shown) [atropine]: the Sensitization assay result in data set [2] is given as “positive”. Moreover, the “Pupil dilation (mydriasis)” value with pupil is given as “causes mydriasis”.
